Measurements: publication PMC12736255, “Reinvestigating Pyrrol-2-One-Based Compounds: From Antimicrobial Agents to Promising Antitumor Candidates” (Pharmaceuticals, 2025)

What was measured:
[1] = CellTiter-Glo 2.0 cytotoxicity, normal fibroblasts; type: cell-based, human; settings: human, human gingival fibroblasts (HGF), read-out: cell viability
Procedure: (§1) Cytotoxicity of compounds was assessed using the CellTiter-Glo® 2.0 Assay (Promega, Madison, WI, USA) on human gingival fibroblasts (HGF), osteosarcoma (HOS and MG-63) and glioblastoma (LN-229 and U-118MG) cells, according to the manufacturer’s instructions. HGF, HOS, MG-63 and U-118MG cells were purchased from Cytion GmbH, Eppelheim, Germany, and LN-229 (CRL-2611) from the American Type Culture Collection (ATCC), Manassas, VA, USA. Cells were seeded (50,000 cells/mL—HGF, 100,000 cells/mL—tumor cells) into 96-well opaque white tissue culture-treated plates and allowed to adhere overnight in αMEM medium with 10% fetal bovine serum and 1% antibiotic-antimycotic (all from PAN—Biotech GmbH, Aidenbach, Germany). Cells were incubated with compounds (10 or 50 µM) for 24 h, then CellTiter-Glo® reagent was added and luminescence was recorded using a FLUOstar® Omega microplate reader (BMG LABTECH, Ortenberg, Germany). The experiments were carried out in triplicate, and the viability of treated cells was expressed as a percentage of the viability of control cells (untreated). Data were represented as means ± standard deviations. Stock solutions of compounds were prepared in DMSO, then diluted in complete cell culture media. […] Data were analyzed with independent two-tailed (Student’s) t-test, considering p < 0.05 statistically significant.

[2] = test system: U-118MG; test: CellTiter-Glo 2.0 cytotoxicity, glioblastoma; type: cell-based, human; settings: 50 µM, 24 h
Procedure: as §1

[3] = test system: LN-229; test: CellTiter-Glo 2.0 cytotoxicity, glioblastoma; type: cell-based, human; settings: LN-229, 24 h
Procedure: as §1

[4] = test system: PC-3; test: NCI-60 5-dose screen; type: cell-based, human
[5] = test system: IGROV1; test: NCI-60 5-dose screen; type: cell-based, human
[6] = test system: M14; test: NCI-60 5-dose screen; type: cell-based, human
[7] = test system: SR; test: NCI-60 5-dose screen; type: cell-based, human
[8] = test system: NCI-H226; test: NCI-60 5-dose screen; type: cell-based, human
[9] = test system: HT29; test: NCI-60 5-dose screen; type: cell-based, human
[10] = test system: U251; test: NCI-60 5-dose screen; type: cell-based, human
[11] = test system: SNB-75; test: NCI-60 5-dose screen; type: cell-based, human
[12] = test system: HS 578T; test: NCI-60 5-dose screen; type: cell-based, human
[13] = test system: CAKI-1; test: NCI-60 5-dose screen; type: cell-based, human
[14] = test system: fungal strains; design: method as in PMID 38398524; settings: cited from earlier work
[15] = test system: A549/ATCC; test: NCI-60 5-dose screen; type: cell-based, human
[16] = test system: HL-60(TB); test: NCI-60 5-dose screen; type: cell-based, human
[17] = test system: SF-268; test: NCI-60 5-dose screen; type: cell-based, human
[18] = test system: ACHN; test: NCI-60 5-dose screen; type: cell-based, human
[19] = test system: HOP-92; test: NCI-60 5-dose screen; type: cell-based, human
[20] = test system: MDA-MB-468; test: NCI-60 5-dose screen; type: cell-based, human
[21] = test system: OVCAR-4; test: NCI-60 5-dose screen; type: cell-based, human
[22] = test system: SK-OV-3; test: NCI-60 5-dose screen; type: cell-based, human
[23] = test system: MALME-3M; test: NCI-60 5-dose screen; type: cell-based, human
[24] = test system: SW-620; test: NCI-60 5-dose screen; type: cell-based, human
[25] = test system: OVCAR-3; test: NCI-60 5-dose screen; type: cell-based, human
[26] = test system: Gram-positive and Gram-negative bacteria; design: method as in PMID 38398524; settings: cited from earlier work
[27] = Homo sapiens, read-out: LC50 (the source's name)

Structure (SMILES): COc1cc(OC)c(C2C=C(Nc3ccc(I)cc3)C(=O)N2c2ccc(I)cc2)cc1OC (centres unmarked) [3k]
- viability at 24 h, 50 µM [1]: 64%
- cytotoxicity (activity in words) [2]: moderate activity
- cytotoxicity (activity in words) [3]: ineffective

Structure (SMILES): N#Cc1ccc(C2C=C(Nc3ccc(I)cc3)C(=O)N2c2ccc(I)cc2)cc1 (centres unmarked) [3l]
- TGI [4]: >100 µM
- GI50 ([4]; Homo sapiens): 2.4 µM
- CC50 [4, 27]: > 100 µM
- TGI [5]: >100 µM
- GI50 ([5]; Homo sapiens, IGROV-1): 8.67 µM
- CC50 ([5]; Homo sapiens, IGROV-1, read-out: LC50 (the source's name)): > 100 µM
- TGI [6]: >100 µM
- GI50 ([6]; Homo sapiens): 7.24 µM
- CC50 [6, 27]: > 100 µM
- TGI [7]: >100 µM
- GI50 ([7]; Homo sapiens): 6.28 µM
- CC50 [7, 27]: > 100 µM
- TGI [8]: >100 µM
- GI50 ([8]; Homo sapiens): 4.42 µM
- CC50 [8, 27]: > 100 µM
- TGI [9]: >100 µM
- GI50 ([9]; Homo sapiens, HT-29): 9.43 µM
- CC50 ([9]; Homo sapiens, HT-29, read-out: LC50 (the source's name)): > 100 µM
- TGI [10]: >100 µM
- GI50 ([10]; Homo sapiens, U-251): 4.17 µM
- LC50 (50% lethal concentration) ([10]; Homo sapiens, U-251): > 100 µM
- TGI [11]: 3.42 µM
- GI50 ([11]; Homo sapiens): 1.34 µM
- CC50 [11, 27]: 8.76 µM
- TGI [12]: 5.64 µM
- GI50 ([12]; Homo sapiens): 2.1 µM
- CC50 [12, 27]: > 100 µM
- TGI [13]: >100 µM
- GI50 ([13]; Homo sapiens): 9.48 µM
- CC50 [13, 27]: > 100 µM
- antifungal activity (in words) [14]: most effective against fungal strains
- TGI [15]: >100 µM
- GI50 ([15]; Homo sapiens): 8.08 µM
- CC50 [15, 27]: > 100 µM
- TGI [16]: >100 µM
- GI50 ([16]; Homo sapiens): > 100 µM
- CC50 [16, 27]: > 100 µM
- TGI [17]: >100 µM
- GI50 ([17]; Homo sapiens): 4.69 µM
- CC50 [17, 27]: > 100 µM
- TGI [18]: >100 µM
- GI50 ([18]; Homo sapiens): 5.36 µM
- CC50 [18, 27]: > 100 µM
- TGI [19]: 4.89 µM
- GI50 ([19]; Homo sapiens): 1.46 µM
- CC50 [19, 27]: > 100 µM
- TGI [20]: >100 µM
- GI50 ([20]; Homo sapiens): 2.7 µM
- CC50 [20, 27]: > 100 µM
- TGI [21]: 1.69 µM
- GI50 ([21]; Homo sapiens): 0.422 µM
- CC50 [21, 27]: 4.82 µM
- TGI [22]: >100 µM
- GI50 ([22]; Homo sapiens): 6.41 µM
- CC50 [22, 27]: > 100 µM
- GI50 ([23]; Homo sapiens, Malme-3M): 2.07 µM
- CC50 ([23]; Homo sapiens, Malme-3M, read-out: LC50 (the source's name)): > 100 µM
- TGI ([23]; MALME-3M): >100 µM
- TGI [24]: >100 µM
- GI50 ([24]; Homo sapiens): 5.91 µM
- CC50 [24, 27]: > 100 µM
- cytotoxicity (activity in words) [2]: moderate activity
- cytotoxicity (activity in words) [3]: ineffective
- TGI [25]: >100 µM
- GI50 ([25]; Homo sapiens): 4.72 µM
- CC50 [25, 27]: > 100 µM

Structure (SMILES): O=C1C(Nc2ccc(I)cc2)=CC(c2ccco2)N1c1ccc(I)cc1 (centres unmarked) [3m]
- antibacterial activity (in words) [26]: highest antibacterial activity

Structure (SMILES): O=C1C(Nc2ccc(I)cc2)=CC(c2ccc3c(c2)OCO3)N1c1ccc(I)cc1 (centres unmarked) [3n]
- antibacterial activity (in words) [26]: highest antibacterial activity
